Patent US20030157491A1, “HarA polypeptides and nucleic acids, and related methods and uses thereof” (priority 2002, published 2003)
≈ marks a conversion by molar mass, not a printed value.

Assays:
[1] = system: SA1 (pMP20); experiment: MIC by broth microdilution, S. aureus RN4220 with vector only (pMP20); format: cell-based, Staphylococcus aureus
Experimental: (§1) To identify genes whose products might be important in establishing the intrinsic level of resistance to hygromycins, applicants screened a recombinant library of B. subtilis chromosomal DNA segments cloned into the E. coli-S. aureus shuttle vector pMP20 for S. aureus transformants with increased levels of resistance to a hygromycin analogue, as follows:
(§2) Chromosomal DNA was extracted from a 100 mL culture of B. subtilis strain JH642 grown in L both, partially digested with Sau3A and fractionated by electrophoresis in a 1% agarose gel. A fraction corresponding in size to 2-4 kb was purified and used for ligation with pMP20 that had been digested with BamHI and dephosphorylated with alkaline phosphatase. Ligated DNA was used to transform E. coli DH5α by electroporation, with selection for ampicillin resistance. Transformant colonies were pooled; the plasmid DNA mixture was extracted and used to transform S. aureus RN4220 by electroporation with selection on plates containing erythromycin (2 μg/mL) and 2 μg/mL of a nonpolar hygromycin A analogue, 3-(4-((2S,4S,5R)-5-(3-(2,4-dichloro-phenoxy)-1-methyl)-(1E)-propenyl)-4-hydroxy-tetrahydro-furan-2-yloxy)-3-hydroxy-phenyl)-2-methyl-N-((3aS,4R,5R,6S,7R,7aR)-4,6,7-trihydroxy-hexahydro-benzo(1,3)dioxol-5-yl)-(2E)-acrylamide, which is Example 68 of WO 00/32616 and referred to herein as “Compound 1”.
(§3) Vector-transformed S. aureus cells were sensitive to this level of Compound 1. Plasmid segregation and backcross experiments confirmed that plasmids harboring DNA segments from the B. subtilis chromosome conferred hygromycin A resistance in S. aureus. The MIC for Compound 1 was increased in these strains from ≦0.2 μg/mL for pMP20 transformants to 50 μg/mL for cells transformed with the recombinant plasmids.
(§4) Quantitative assessment of resistance was performed by a broth microdilution method using cation-supplemented Mueller-Hinton broth containing antibiotics, the concentration of which varied in two-fold increments.
(§5) Preferably, the microdilution assay is performed using cation-adjusted Mueller-Hinton broth according to NCCLS (National Committee for Clinical Laboratory Standards) guideline M31 -A, Vol. 19, No. 11, “Performance standards for antimicrobial disk and dilution susceptibility tests for bacteria isolated from animals,” June 1999 (ISBN 1-56238-377-9), which is herein incorporated by reference.
(§6) To confirm the role of expZ in conferring resistance to hygromycin A analogues and other compounds, applicants examined the effect of B. subtilis and E. faecalis expZ expression and disruption on antibiotic resistance patterns. […] Also shown in Table 1 is the conferral of the “harA” phenotype on the normally drug-sensitive S. aureus RN4220 strain by transformation with a pMP plasmid containing B. subtilis harA.

[2] = system: E. faecalis OGX1 str gel ("EF1"); experiment: MIC by broth microdilution, wild-type resistant E. faecalis OG1X; format: cell-based, Enterococcus faecalis; conditions: duplicate
Experimental: as §4, §5, §6

[3] = system: S. aureus RN4220 ("SA1"); experiment: MIC by broth microdilution, wild-type sensitive S. aureus RN4220; format: cell-based, Staphylococcus aureus; conditions: duplicate
Experimental: as §4, §5, §6

[4] = system: SA1 (pMP20 Bs_harA+); experiment: MIC by broth microdilution, S. aureus RN4220 with vector carrying B. subtilis harA; format: cell-based, Staphylococcus aureus; conditions: for increase in the MIC: sensitive S. aureus strain compared to same strain transformed with and expressing harA
Experimental: as §1, §2, §3, §4, §5, §6

[5] = system: BS1 (harA::cat); experiment: MIC by broth microdilution, B. subtilis JH642 harA disruption mutant; format: cell-based, Bacillus subtilis; conditions: for MIC: BS1 (harA::cat), disruption mutant, broth microdilution, duplicate; for susceptibility of strain JH642 expZ::CAT: B. subtilis harA::CAT insertion mutant
Description: A B. subtilis strain expressing a harA::CAT insertion mutant was produced by single-crossover recombination using integrative plasmid pJPM1. Plasmid pJPM1 is a pSK^− derivative that carries the cat gene of S. aureus plasmid pC194 that confers chloramphenicol resistance in B. subtilis. […] However, if any DNA fragment providing a region of homology with the B. subtilis chromosome is inserted into this plasmid, it acquires the ability to transform B. subtilis competent cells to cat resistance at high frequency. The integration occurs via a Campbell-type (single crossover) recombination event that results in the duplication of the cloned region at either end of the vector. Reversal of the integration event leads to precise excision of the plasmid and restoration of gene structure on the chromosome. An internal fragment of the B. subtilis harA gene was excised using EcoRV and EcoRI and subcloned into compatible sites in pJPM1 creating plasmid pJPM1-expZ1. Plasmid pJPM1-expZ1 was used to transform the naturally competent B. subtilis strain JH642 (hygromycin-resistant) and transformants selected using chloramphenicol ([…]). A harA::CAT insertion mutant was confirmed by PCR and the strain was designated “JH642 expZ::CAT.” Strain JH642 expZ::CAT was hypersensitive to hygromycin analogues and other unrelated antibiotics including lankacidin and virginiamycin. Strain JH642 expZ::CAT was deposited with the ATCC on Sep. 26, 2000, and accorded Accession No. PTA-2480.
as §4, §5, §6

[6] = system: EF1 (harA::erm); experiment: MIC by broth microdilution, E. faecalis OG1X harA disruption mutant; format: cell-based, Enterococcus faecalis; conditions: for decrease in the MIC when the harA gene is disrupted: E. faecalis OG1X; for MIC: EF1 (harA::erm), disruption mutant, broth microdilution, duplicate; for susceptibility of strain OG1X harA::erm: E. faecalis harA::erm knockout strain
Description: A PCR product corresponding to an internal segment of the E. faecalis harA gene was generated to obtain pVA891 -expZ by using the E. coli vector pVA891, which carries an ERM determinant that expresses in E. coli and E. faecalis. Briefly, internal harA primers were used (sense: 5′-[…]-3′-SEQ ID NO: 5); (antisense: 5′-[…]-3′-SEQ ID NO: 6) with E. faecalis genomic template DNA to generate a 665 bp PCR product. PCR-generated fragments were purified using the QIAquick PCR purification kit and cloned into the T-A cloning plasmid pGem-T Easy. The fragment was subsequently excised using EcoRI, gel purified using the S&S Elu-Quik kit, and cloned into the EcoRI site of pVA891. The ligation was transformed in E. coli DH5α with selection for erythromycin resistance (200 μg/mL); resulting in pVA891-expZ. The plasmid pVA891-expz was introduced by electroporation into E. faecalis OG1X (hygromycin resistant), where integrants occurring via homologous recombination were selected using erythromycin (20 μg/mL). The harA::erm knockout strain was confirmed by PCR and designated “OG1X harA::erm.” Strain OG1X harA::erm was hypersensitive to nonpolar hygromycin A analogues, lankacidin, virginiamycin and Synercid®. Revertants (i.e., resistant strains) could be obtained by growing for several generations in the absence of erythromycin and identified by screening for resistance to hygromycin A and sensitivity to erythromycin. Strain OG1X harA::erm was deposited with the ATCC on Sep. 26, 2000, and was accorded Accession No. PTA-2550.
as §4, §5, §6

[7] = system: B. subtilis JH642 trpC2 pheA1 ("BS1"); experiment: MIC by broth microdilution, wild-type resistant B. subtilis JH642; format: cell-based, Bacillus subtilis; conditions: duplicate
Experimental: as §4, §5, §6

[8] = SA1 (pMP20), wild-type, sensitive + vector only, broth microdilution, duplicate
[9] = SA1 (pMP20 Bs_harA+), sensitive + vector with B. subtilis harA, broth microdilution, duplicate

| Molecule | MIC [1, 8] | MIC [2] [µg/mL] | MIC [3] | MIC [4, 9] [µg/mL] | MIC [5] | decrease in the MIC when the harA gene is disrupted [6] | MIC [6] | MIC [7] [µg/mL] | sensitivity of vector-transformed S. aureus cells on selection plates ([1]; 2 μg/mL of compound on plates) | MIC ([1]; S. aureus pMP20 transformants (library selection, text)) [µg/mL] | MIC ([4]; S. aureus cells transformed with the recombinant plasmids carrying B. subtilis DNA segments) [µg/mL] | increase in the MIC [4] | decrease in the MIC when the harA gene is disrupted ([5]; B. subtilis JH642) | susceptibility of strain JH642 expZ::CAT [5] | susceptibility of strain OG1X harA::erm [6] |
| --- | --- | --- | --- | --- | --- | --- | --- | --- | --- | --- | --- | --- | --- | --- | --- |
| 5-deoxy-5[4-[(2,6-dideoxy-β-D-erythro-hexofuranos-5-ulos-1-yl)oxy]-3-hydroxyphenyl]-2-methyl-1-oxo-2-(E)-propenyl]amino]-1,2-O-methylene-D-neo-inositol, (E)-O-[(3-chlorophenyl)methyl]oxime [Compound 2] | ≦0.2 μg/mL | 1.25 | ≦0.2 μg/mL | 50 | 0.39 µg/mL | greater than 4 fold | ≦0.2 μg/mL | 100 |  |  |  |  |  |  |  |
| C/C(=C\c1ccc(O[C@H]2C[C@H](O)[C@@H](/C(C)=C/COc3ccc(Cl)cc3Cl)O2)c(O)c1)C(=O)N[C@@H]1[C@H](O)[C@@H](O)[C@H]2OCO[C@H]2[C@@H]1O [Compound 1] | ≦0.2 μg/mL | 1.25 (≈ 1.87 µM) | ≦0.2 μg/mL | 100 | ≦0.2 μg/mL |  | ≦0.2 μg/mL | 50 (≈ 74.8 µM) | sensitive | ≤ 0.2 | 50 | ~500 fold |  |  |  |
| C/C(=C\c1ccc(O[C@@H]2O[C@H](/C(C)=N/OCc3cccc(Cl)c3)[C@@H](O)[C@@H]2O)c(O)c1)C(=O)N[C@@H]1[C@H](O)[C@@H](O)[C@H]2OCO[C@H]2[C@@H]1O [Compound 3, 5-deoxy-5-[[3-[4-[(6-deoxy-β-D-arabino-hexofuranos-5-ulos-1-yl)oxy]-3-hydroxyphenyl]-2-methyl-1-oxo-2-(E)-propenyl]amino]-1,2-O-methylene-D-neo-inositol, (E)-O-[(3-chlorophenyl)methyl]oxime] | 0.39 µg/mL | 1.56 (≈ 2.4 µM) | 0.39 µg/mL (≈ 0.599 µM) | >100 | 0.78 µg/mL |  | ≦0.2 μg/mL | >100 |  |  |  |  |  |  |  |
| CC(=O)[C@H]1O[C@@H](Oc2ccc(/C=C(\C)C(=O)N[C@@H]3[C@H](O)[C@@H](O)[C@H]4OCO[C@H]4[C@@H]3O)cc2O)[C@@H](O)[C@@H]1O [Hygromycin A] |  | 62.5 (≈ 122 µM) | 31.3 µg/mL (≈ 61.2 µM) | 250 | 15.6 µg/mL |  | 7.8 µg/mL | 250 (≈ 489 µM) |  |  |  | about 8 fold | about 16 fold |  |  |
| CC1=C\[C@@H](O)CC(=O)Cc2nc(co2)C(=O)N2CCC=C2C(=O)O[C@H](C(C)C)[C@H](C)/C=C/C(=O)NC\C=C\1 [Virginiamycin A] | 0.78 µg/mL | 25 (≈ 47.6 µM) | 0.78 µg/mL (≈ 1.48 µM) | 50 | 0.78 µg/mL |  | 1.56 µg/mL | 25 (≈ 47.6 µM) |  |  |  |  |  | hypersensitive | hypersensitive |
| Lankacidin |  | >100 | 3.13 µg/mL | >100 | 1.56 µg/mL | greater than 100 fold | 0.39 µg/mL | >100 |  |  |  |  |  | hypersensitive | hypersensitive |
